“And” between values parts separate entries of the source, which are not always exact repeats. Equal values may be shown once. Read-outs that look alike come from different tables or passages of the source.
Columns and labels:
[1] = test system: rat BLM induced lung fibrosis model; assay: Rat bleomycin induced lung fibrosis model, Phase II (efficacy); conditions: bleomycin rats, LYT-100 400 mg/kg QD / nintedanib 60 mg/kg BID
Experimental: For Groups 4, 5, 6, and 7, bleomycin and vehicle dosing were conducted as indicated in Table 28 (0.45 mg/kg, at 1696 IU/mg of Bleomycin or saline on Day 1, 2, 3, 6 and 7).

[2] = test system: patients with Idiopathic Pulmonary Fibrosis (IPF); assay: IPF trial Part A: clinical laboratory parameters, liver; assay type: in vivo, human; conditions: 801 mg TID (N = 63), N1 62
patients with IPF [3] = conditions: cited from earlier work
clinical = conditions: both sexes, human, in vivo, 550 mg
Experimental: (§1) Over-encapsulation was utilized to maintain study blind. […] Approximately 50 older healthy female and male adult subjects (1:1 ratio) were randomized into 1 of 2 cohorts:Cohort 1 or Cohort 2, N=˜25 subjects per cohort.
There was a single AM fasting dose on Day 4 for both drugs. There was a 6-day wash-out period between drug cross-over.
Subjects were discharged on Day 4 following successful completion of all assessments and at the Investigator's discretion.
Subjects were then administered a single dose of their randomized treatment on the morning of Day 14 following an overnight fast of at least 8 hours. Subjects were discharged on Day 14 following successful completion of all assessments and at the Investigator's discretion.
An evening snack was served ≥3 hours following evening study medication administration. On Day 4 (Treatment Period 1) and Day 14 (Treatment Period 2), subjects were administered their assigned study drug once in the morning following an overnight fast of at least 8 hours (with approximately 240 mL of non-carbonated water). No additional fluids were allowed during the 1 hour pre- and post-dose.
Blood samples for PK were collected for Cohorts 1 and 2 at specified times during both periods, as follows: • Days 1 & 11:0 (pre-morning dose) • Days 2 & 12: no sampling. • Days 3 & 13:0 (pre-morning dose), and 1, 2, 3, 4, 6 (pre-mid-day dose), 7, 8, 9, 10, 12 (pre-evening dose), 13, 14, 15, 16, and 17 hours post-morning dose • Days 4 & 14:0 (pre-morning dose), and 1, 2, 3, 4, 6 (post-dose),

CYP1A2 = target: T1, CYP1A2 (Homo sapiens, UniProt P05177); assay: In vitro stability with recombinant human CYP1A2; assay type: in vitro ADME; conditions: recombinant human isozyme; read-out: t1/2 following incubation with CYP1A2 (converted)
T1 construct: host or cells: heterologous cell systems (not specified)
T1 sequence (P05177 1-516): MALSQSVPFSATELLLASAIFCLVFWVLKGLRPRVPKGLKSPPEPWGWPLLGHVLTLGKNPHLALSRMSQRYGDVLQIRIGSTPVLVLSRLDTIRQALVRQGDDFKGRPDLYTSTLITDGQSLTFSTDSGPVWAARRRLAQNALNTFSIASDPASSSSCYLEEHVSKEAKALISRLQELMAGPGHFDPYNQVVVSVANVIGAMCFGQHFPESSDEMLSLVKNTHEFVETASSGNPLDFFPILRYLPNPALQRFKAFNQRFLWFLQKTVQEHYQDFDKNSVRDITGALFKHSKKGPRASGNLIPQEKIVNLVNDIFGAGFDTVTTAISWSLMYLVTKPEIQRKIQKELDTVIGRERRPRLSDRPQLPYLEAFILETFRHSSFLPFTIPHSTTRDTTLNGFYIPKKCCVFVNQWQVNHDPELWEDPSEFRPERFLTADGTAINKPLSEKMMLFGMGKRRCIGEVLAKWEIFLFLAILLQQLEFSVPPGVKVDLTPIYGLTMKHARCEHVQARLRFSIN
Experimental: (§2) The half-life (t½) of each test article was determined.

CYP2C19 = target: T2, CYP2C19 (Homo sapiens, UniProt P33261); assay: In vitro stability with recombinant human CYP2C19; assay type: in vitro ADME; conditions: recombinant human isozyme; read-out: t1/2 following incubation with CYP2C19 (converted)
T2 construct: host or cells: heterologous cell systems (not specified)
Experimental: as §2

[4] = study PIPF-005, 801 mg three times daily (2403 mg/day), healthy older subjects; cited from earlier work
[5] = test system: patients with Idiopathic Pulmonary Fibrosis (IPF); assay: IPF trial Part A: safety and tolerability (TEAEs, AESI, dose modifications, discontinuations); assay type: in vivo; conditions: 801 mg TID (N = 63)
Experimental: The primary objective was to determine the dose(s) to carry into Phase 3. […] Patients were randomized to one of the four treatments in a 1:1:1:1 ratio and stratified based on prior exposure to nintedanib (<6 months) versus nintedanib-naïve patients. Patients who completed the Double-blind Treatment Period (Part A) were offered participation in the Long-term Extension (Part B). […] For patients who participated in Part B, the follow-up was conducted at the end of Part B. A graphical illustration of an embodiment of the trial design is provided as FIG. 24B.
Safety endpoints included: Adverse events, concomitant medications, clinical laboratory findings (chemistry, hematology, urinalysis), physical examinations, ECGs, and vital signs. These will be summarized descriptively, where appropriate.
Tolerability endpoints included: Frequency of dose modifications (reductions and interruptions), time to first dose modification, (reduction or interruption), duration of adverse events of special interest, time to treatment discontinuation due to an adverse event of special interest and patient reported assessment of IPF symptoms, side-effects, severity, change and satisfaction.
In this study, AEs are reported for all patients from the time of consent until the completion of the Follow-up visit. AEs reported prior to the first dose are denoted as pre-treatment. SAEs are reported for all patients (randomized or not) from the time of consent. AEs reported from the time of consent to confinement on Day 0 were recorded as pre-treatment AEs.
Treatment emergent adverse events (TEAEs) are defined as an AE that occurs following first dose of study medication and were evaluated from the first administration of study drug on Day 1 until the Follow-up visit. […]
This study evaluated in particular the tolerability based on prioritized gastrointestinal adverse events (GI AEs). […]

CYP2D6 = target: T3, CYP2D6 (Homo sapiens, UniProt P10635); assay: In vitro stability with recombinant human CYP2D6; assay type: in vitro ADME; conditions: recombinant human isozyme; read-out: t1/2 following incubation with CYP2D6 (converted)
T3 construct: host or cells: heterologous cell systems (not specified)
Experimental: as §2

older, healthy subjects = assay: Crossover study Part 2: safety and tolerability (TEAEs), fed and fasted; assay type: in vivo, human
Description: as §1, with “cohort. Subjects in each cohort were randomized to treatment sequence as follows: • Sequence A: Pirfenidone to LYT-100 • Sequence B: LYT-100 to pirfenidone” for “cohort.”

patients with IPF [6] = conditions: cited from earlier work; for patients with IPF progression (decline ≥10% in % FVC or death over 52 weeks): Nathan 2018
[7] = observational study (Cottin 2018)
[8] = pooled phase 3 (Noble 2016), one year, vs placebo

T2 sequence (P33261 whole entry): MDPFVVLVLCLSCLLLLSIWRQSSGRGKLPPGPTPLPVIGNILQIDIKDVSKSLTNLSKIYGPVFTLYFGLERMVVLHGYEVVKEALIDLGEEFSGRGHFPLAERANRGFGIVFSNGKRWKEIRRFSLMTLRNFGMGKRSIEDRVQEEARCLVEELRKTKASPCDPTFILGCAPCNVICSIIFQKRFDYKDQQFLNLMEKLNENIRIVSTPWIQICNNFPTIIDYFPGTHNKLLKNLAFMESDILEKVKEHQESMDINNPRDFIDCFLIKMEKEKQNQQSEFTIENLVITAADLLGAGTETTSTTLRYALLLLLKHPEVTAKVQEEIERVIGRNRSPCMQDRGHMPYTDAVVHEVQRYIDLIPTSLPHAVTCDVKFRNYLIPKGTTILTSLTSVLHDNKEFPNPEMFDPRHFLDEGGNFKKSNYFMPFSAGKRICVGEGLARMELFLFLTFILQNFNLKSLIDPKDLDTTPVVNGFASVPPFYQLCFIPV
T3 sequence (P10635 whole entry): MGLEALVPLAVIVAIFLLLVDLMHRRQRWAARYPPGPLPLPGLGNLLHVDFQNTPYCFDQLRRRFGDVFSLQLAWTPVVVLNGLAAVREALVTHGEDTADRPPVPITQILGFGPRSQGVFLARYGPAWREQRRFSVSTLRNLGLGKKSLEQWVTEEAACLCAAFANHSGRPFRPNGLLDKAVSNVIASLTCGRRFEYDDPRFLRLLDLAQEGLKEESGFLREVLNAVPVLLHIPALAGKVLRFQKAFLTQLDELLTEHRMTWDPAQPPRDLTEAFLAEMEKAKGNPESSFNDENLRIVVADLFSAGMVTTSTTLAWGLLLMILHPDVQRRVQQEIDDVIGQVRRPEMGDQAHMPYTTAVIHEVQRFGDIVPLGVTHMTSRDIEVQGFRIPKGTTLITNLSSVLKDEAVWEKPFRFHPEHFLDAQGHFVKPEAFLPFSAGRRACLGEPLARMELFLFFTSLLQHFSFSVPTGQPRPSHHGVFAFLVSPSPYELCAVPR

## COC(=O)c1ccc2c(c1)NC(=O)/C2=C(\Nc1ccc(N(C)C(=O)CN2CCN(C)CC2)cc1)c1ccccc1 [Nintedanib, nintedanib, reference compound]
[1]; Day 8-27
  hydroxyproline content (μg per mg of wet lung) vs bleomycin/vehicle: reduced hydroxyproline content
  lung fibrosis scores (histopathology) vs bleomycin/vehicle: did not affect the fibrosis scores
  lung sections with fibrosis Score 1: 37%
  lung sections with fibrosis Score 2: 33%
  lung weight ratio (% of body weight) vs bleomycin/vehicle: trend for lower lung weight ratios
  mean lung weight vs bleomycin/vehicle: reduced lung weight
  median lung fibrosis scores vs bleomycin/vehicle: reduced median fibrosis scores
  total left lung hydroxyproline (μg per left lung) vs bleomycin/vehicle: lower levels of total hydroxyproline
[1]; oral gavage Day 8-27
  body weight gain: showed modest improvement after Day 8 and the rate of body weight gain remained slower compared with the other groups

## Cc1ccc(=O)n(-c2ccccc2)c1 [Pirfenidone, pirfenidone, reference compound]
[2]
  Alanine Aminotransferase (U/L) at Worst Post-Baseline, 3-5 ULN: 1 (1.6) n (%)
  Alanine Aminotransferase (U/L) at Worst Post-Baseline, 5-8 ULN: 0 n (%)
  Alanine Aminotransferase (U/L) at Worst Post-Baseline, >8 ULN: 0 n (%)
  Alanine Aminotransferase (U/L) at Worst Post-Baseline, Total (>3 ULN): 1 (1.6) n (%)
  Alanine Aminotransferase or Aspartate Aminotransferase (U/L) at Worst Post-Baseline, 3-5 ULN: 1 (1.6) n (%)
  Alanine Aminotransferase or Aspartate Aminotransferase (U/L) at Worst Post-Baseline, 5-8 ULN: 0 n (%)
  Alanine Aminotransferase or Aspartate Aminotransferase (U/L) at Worst Post-Baseline, >8 ULN: 0 n (%)
  Alanine Aminotransferase or Aspartate Aminotransferase (U/L) at Worst Post-Baseline, Total (>3 ULN): 1 (1.6) n (%)
  Aspartate Aminotransferase (U/L) at Worst Post-Baseline, 3-5 ULN: 0 n (%)
  Aspartate Aminotransferase (U/L) at Worst Post-Baseline, 5-8 ULN: 0 n (%)
  Aspartate Aminotransferase (U/L) at Worst Post-Baseline, >8 ULN: 0 n (%)
  Aspartate Aminotransferase (U/L) at Worst Post-Baseline, Total (>3 ULN): 0 n (%)
Patients with IPF [3]; [7]
  discontinuations due to adverse events associated with pirfenidone: 27.9%
  patients on a lower dose by two years: 13.8%
  patients who had discontinued treatment by two years: 64.9%
Patients with IPF [3]; observational study of 1,009 IPF patients (Cottin 2018), FIG. 1B
  patients still on full dose (2,403 mg/day) by two years: 21.3% and 21%
clinical; AUC0-24, parent
  AUC(0-t): 44100 ng·h/mL
clinical; Cmax, parent
  Cmax: 12700 ng/mL
CYP1A2
  half-life: 3.18 h
CYP2C19
  half-life: 2.13 h
[4]
  Cmax: 11850 ng/mL
[5]
  Discontinued, Primary Reason: Death: 0 n (%)
CYP2D6
  half-life: 2.3 h
older, healthy subjects; Part 2
  deaths or serious AEs: No deaths or serious AEs
older, healthy subjects; in vivo
  TEAEs leading to study discontinuation, subjects: one
Patients with IPF [6]; <90% dose intensity
  patients with IPF progression (decline ≥10% in % FVC or death over 52 weeks): 21.6%
Patients with IPF [6]; >90% dose intensity
  patients with IPF progression (decline ≥10% in % FVC or death over 52 weeks): 11.6%
Patients with IPF [6]; pooled phase 3 (Nathan 2018)
  rate of permanent dose reductions: 31.5%
  rate of treatment discontinuation: 15.2%
Patients with IPF [6]; pooled phase 3 (Noble 2016), 1 year, vs placebo
  reduction of risk of death or disease progression: 38%
Patients with IPF [6]; pooled phase 3 (Noble 2016), 1 year
  FVC change, absolute difference vs placebo: 148 mL
Patients with IPF [6]; [8]
  increase in proportion of patients with no decline in FVC % predicted: 59.3%
  reduction in proportion of patients with ≥10% decline in FVC % predicted or death: 43.8%
Patients with IPF [6]; pooled phase 3 (Noble 2016), pirfenidone group
  mean change from baseline to 1 year in FVC: -216 mL

Reference: patent US12622899B2 (PureTech LYT 100, Inc., priority 2018, dated 2026)
